Laboratory results reported in ChEMBL document CHEMBL6092154, “Design, synthesis, and evaluation of a novel TRAIL-activated HDAC6 inhibitor for the treatment of pulmonary fibrosis” (Bioorg Med Chem, 2024).
pIC50: −log10 of the molar value. Active and inactive are the calls of the source. No cut-off for these calls is given here.

What was measured:
Mus musculus [1] = assay: Anti-pulmonary fibrosis activity in bleomycin-induced idiopathic pulmonary fibrosis C57BL/6J mouse model assessed as decrease in lung damage by measuring decrease in inflammatory cell infiltration in lung at 25 to 50 mg/kg, ig administered daily via gavage and measured on day 14 by Hematoxylin-Eosin staining based analysis; type: functional, organism-based; details: dose 25-50 mg/kg, time 14.0 day
[2] = target: T1, Protein deacetylase HDAC6 (Mus musculus) (UniProt Q9Z2V5); assay: In vivo inhibition of HDAC6 in bleomycin-induced idiopathic pulmonary fibrosis C57BL/6J mouse model assessed as increase in acetylated histone H4 level in lung at 50 mg/kg, ig administered via gavage and measured on day 14 by western blot analysis; type: functional, organism-based; details: time 14.0 day
T1 sequence (whole entry): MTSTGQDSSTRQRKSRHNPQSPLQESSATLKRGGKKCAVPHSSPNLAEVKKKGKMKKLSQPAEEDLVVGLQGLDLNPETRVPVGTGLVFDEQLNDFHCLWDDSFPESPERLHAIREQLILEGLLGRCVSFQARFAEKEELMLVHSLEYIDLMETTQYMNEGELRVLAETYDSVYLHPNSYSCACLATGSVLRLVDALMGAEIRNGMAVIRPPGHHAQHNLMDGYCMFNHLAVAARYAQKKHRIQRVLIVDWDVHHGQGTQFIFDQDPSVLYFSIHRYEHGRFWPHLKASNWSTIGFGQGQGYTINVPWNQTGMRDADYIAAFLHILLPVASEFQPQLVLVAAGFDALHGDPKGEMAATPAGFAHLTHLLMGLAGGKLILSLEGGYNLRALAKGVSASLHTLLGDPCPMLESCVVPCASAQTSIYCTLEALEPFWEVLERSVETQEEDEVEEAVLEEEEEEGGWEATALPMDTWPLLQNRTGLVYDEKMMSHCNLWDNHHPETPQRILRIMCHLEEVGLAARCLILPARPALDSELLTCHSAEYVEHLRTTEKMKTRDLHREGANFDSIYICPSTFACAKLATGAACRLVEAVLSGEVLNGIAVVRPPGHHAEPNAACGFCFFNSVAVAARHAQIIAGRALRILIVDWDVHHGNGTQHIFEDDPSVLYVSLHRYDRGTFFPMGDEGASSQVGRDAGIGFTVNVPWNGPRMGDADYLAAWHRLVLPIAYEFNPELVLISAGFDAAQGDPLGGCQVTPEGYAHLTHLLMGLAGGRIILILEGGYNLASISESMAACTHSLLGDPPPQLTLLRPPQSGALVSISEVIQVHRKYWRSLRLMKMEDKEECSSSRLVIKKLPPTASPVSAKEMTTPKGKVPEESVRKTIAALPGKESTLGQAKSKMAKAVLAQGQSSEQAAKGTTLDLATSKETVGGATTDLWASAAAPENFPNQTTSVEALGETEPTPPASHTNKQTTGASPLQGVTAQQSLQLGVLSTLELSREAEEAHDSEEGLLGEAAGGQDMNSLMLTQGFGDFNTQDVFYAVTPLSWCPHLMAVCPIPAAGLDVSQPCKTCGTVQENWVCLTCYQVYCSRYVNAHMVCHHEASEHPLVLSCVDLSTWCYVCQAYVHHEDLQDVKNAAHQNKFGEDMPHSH

[3] = Toxicity against silicosis C57BL/6J mouse model assessed as effect on spleen morphological changes at 50 mg/kg, ig administered daily via gavage and measured on day 28 by Hematoxylin-Eosin staining based analysis; type: organism-based; details: in vivo, po, 672 h, time 28 day
[4] = target: T1, Protein deacetylase HDAC6 (Mus musculus); assay: In vivo inhibition of HDAC6 in bleomycin-induced idiopathic pulmonary fibrosis C57BL/6J mouse model assessed as increase in acetylated histone H4 level in lung at 25 mg/kg, ig administered via gavage and measured on day 14 by western blot analysis; type: functional, organism-based; details: time 14.0 day
[5] = target: T1, Protein deacetylase HDAC6 (Mus musculus); assay: In vivo inhibition of HDAC6 in bleomycin-induced idiopathic pulmonary fibrosis C57BL/6J mouse model assessed as increase in acetylated alpha-tubulin level in lung at 50 mg/kg, ig administered via gavage and measured on day 14 by western blot analysis; type: functional, organism-based; details: time 14.0 day
Mus musculus [6] = assay: Anti-pulmonary fibrosis activity in bleomycin-induced idiopathic pulmonary fibrosis C57BL/6J mouse model assessed as decrease in collagen I protein expression in lung at 25 mg/kg, ig administered daily via gavage measured after 14 days by western blot analysis; type: functional, organism-based; details: time 14.0 day
RPMI-8226 [7] = assay: Antiproliferative activity against human RPMI-8226 cells assessed as inhibition of cell growth incubated for 24 to 48 hrs by CCK8 assay; type: functional, cell-based
Mus musculus [8] = assay: Anti-pulmonary fibrosis activity in bleomycin-induced idiopathic pulmonary fibrosis C57BL/6J mouse model assessed as decrease in weight loss at 50 mg/kg, ig administered daily via gavage and measured for 14 days; type: functional, organism-based; details: time 14.0 day
[9] = Toxicity against bleomycin-induced pulmonary fibrosis C57BL/6J mouse model assessed as effect on spleen morphological changes at 25 to 50 mg/kg, ig administered daily via gavage and measured on day 14 by Hematoxylin-Eosin staining based analysis; type: organism-based; details: in vivo, po, 336 h, dose 25-50 mg/kg, time 14 day
[10] = target: T1, Protein deacetylase HDAC6 (Mus musculus); assay: In vivo inhibition of HDAC6 in bleomycin-induced idiopathic pulmonary fibrosis C57BL/6J mouse model assessed as increase in acetylated alpha-tubulin level in lung at 25 mg/kg, ig administered via gavage and measured on day 14 by western blot analysis; type: functional, organism-based; details: time 14.0 day
Histone deacetylase 3 = Histone deacetylase 3 (Homo sapiens, UniProt O15379); assay: Inhibition of HDAC3 (unknown origin) at 1 uM incubated for 30 mins by fluorometric analysis
RPMI-8226 [11] = assay: Increase in DR5 protein expression in human RPMI-8226 cells incubated for 24 hrs by western blot analysis; type: functional, cell-based; details: dose 0.25-1 µM

Histone deacetylase 3, sequence (O15379 whole entry): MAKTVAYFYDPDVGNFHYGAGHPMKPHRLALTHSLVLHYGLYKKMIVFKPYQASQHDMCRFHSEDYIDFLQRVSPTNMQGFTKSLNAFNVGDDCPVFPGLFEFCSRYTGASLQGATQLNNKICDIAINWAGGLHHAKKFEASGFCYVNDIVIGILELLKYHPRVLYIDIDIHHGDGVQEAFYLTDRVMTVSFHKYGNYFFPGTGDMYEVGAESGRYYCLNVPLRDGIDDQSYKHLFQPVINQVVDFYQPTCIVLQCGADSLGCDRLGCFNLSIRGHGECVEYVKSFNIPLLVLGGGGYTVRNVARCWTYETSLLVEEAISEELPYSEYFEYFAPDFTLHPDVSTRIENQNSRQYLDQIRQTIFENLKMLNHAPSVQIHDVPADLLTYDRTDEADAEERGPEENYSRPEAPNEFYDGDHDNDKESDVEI

**Q.** What does the source list for `O=C(NO)c1ccc(CN2C(=O)C3=C(CCN(Cc4cccc(Cl)c4)C3)N3CCN=C23)cc1`?
**A.** Activity (Mus musculus [1]): Active; inhibition [2]: Active; Levels Lower Than The Positive Control, Acy-1215; Activity [3]: Non-toxic; inhibition [4]: inactive; inhibition [5]: Active; Levels Lower Than The Positive Control, Acy-1215; Activity (Mus musculus [6]): Active; Superior Activity Compared To Positive Drug, Acy-1215; pIC50 (RPMI-8226 [7]): 6.36; Activity (Mus musculus [8]): Active; Activity [9]: Non-toxic; inhibition [10]: inactive; inhibition (Histone deacetylase 3): 50.8%; Activity (RPMI-8226 [11]): Dose-dependent-effect; Higher Activity Compared To Positive Drug, 1 Um Compound Iic, Chidamide, Acy-1215
